According to patent US20250147039A1, “Compounds for complexation of rare earth elements and/or s-, p-, d- block metals, their coordination compounds, peptide conjugates, method of their preparation and use thereof” (USTAV ORGANICKE CHEMIE A BIOCHEMIE AV CR V.V.I., priority 2021, published 2025):
Each block holds one compound with its values, some of them ahead of it.

Legend:
[1] = Formation of 1,5-cz-[Ln(Lig)] from Lig and Ln^III ions (metal dependent click-zip), MOPS/NaOH buffer pH 7.0, analytical HPLC (Charts 1, 2); details: MOPS/NaOH buffer pH 7.0
[2] = Formation of 1,5-cz-[M(Lig)] from Lig and M^III ions (metal dependent click-zip) (Charts 4, 5); format: physicochemical; details: MOPS/NaOH buffer pH 7.0; for conversion to 1,5-cz-[M(Lig)], Y^III / conversion to 1,5-cz-[M(Lig)], Sc^III: TD728, TD827 in 50% i-PrOH; for conversion to 1,5-cz-[M(Lig)], Y^III: TD714 sum of two diastereoisomers

conversion to 1,5-cz-[Ln(Lig)] with hydrolysed group in the side chain, Lu^III ([1]; after 1 week at 80° C.): 91%
conversion to 1,5-cz-[Ln(Lig)], Lu^III ([1]; after 1 week at 80° C.): 0%
conversion to 1,5-cz-[Ln(Lig)] with hydrolysed group in the side chain, Lu^III ([1]; after 1 hour at 80° C.): 61%
conversion to 1,5-cz-[Ln(Lig)], Lu^III ([1]; after 1 hour at 80° C.): 3%
conversion to 1,5-cz-[Ln(Lig)] with hydrolysed group in the side chain, Sm^III ([1]; after 1 week at 80° C.): 85%
conversion to 1,5-cz-[Ln(Lig)], Sm^III ([1]; after 1 week at 80° C.): 0%
conversion to 1,5-cz-[Ln(Lig)] with hydrolysed group in the side chain, Sm^III ([1]; after 1 hour at 80° C.): 3%
conversion to 1,5-cz-[Ln(Lig)], Sm^III ([1]; after 1 hour at 80° C.): 0%
conversion to 1,5-cz-[Ln(Lig)] with hydrolysed group in the side chain, Tb^III ([1]; after 1 week at 80° C.): 89%
conversion to 1,5-cz-[Ln(Lig)], Tb^III ([1]; after 1 week at 80° C.): 0%
conversion to 1,5-cz-[Ln(Lig)] with hydrolysed group in the side chain, Tb^III ([1]; after 1 hour at 80° C.): 9%
conversion to 1,5-cz-[Ln(Lig)], Tb^III ([1]; after 1 hour at 80° C.): 0%
conversion to 1,5-cz-[Ln(Lig)] with hydrolysed group in the side chain, Y^III ([2]; 1 week at 80° C.): 90%
conversion to 1,5-cz-[M(Lig)], Y^III ([2]; 1 week at 80° C.): 0%
conversion to 1,5-cz-[Ln(Lig)] with hydrolysed group in the side chain, Y^III ([2]; 1 hour at 80° C.): 17%
conversion to 1,5-cz-[M(Lig)], Y^III ([2]; 1 hour at 80° C.): 1%
Compound: C#Cc1cccc(CN2CCN(CC(=O)O)CCN(Cc3cc(C(=O)OC(C)(C)C)cc(CN=[N+]=[N-])n3)CCN(CC(=O)O)CC2)n1 [TD1160]

conversion to 1,5-cz-[Ln(Lig)], Ce^III ([1]; after 1 week at 80° C.): 60%
conversion to 1,5-cz-[Ln(Lig)], Ce^III ([1]; after 1 hour at 80° C.): 0%
conversion to 1,5-cz-[Ln(Lig)], Dy^III ([1]; after 1 week at 80° C.): 96%
conversion to 1,5-cz-[Ln(Lig)], Dy^III ([1]; after 1 hour at 80° C.): 20%
conversion to 1,5-cz-[Ln(Lig)], Er^III ([1]; after 1 week at 80° C.): 96%
conversion to 1,5-cz-[Ln(Lig)], Er^III ([1]; after 1 hour at 80° C.): 46%
conversion to 1,5-cz-[Ln(Lig)], Eu^III ([1]; after 1 week at 80° C.): 93%
conversion to 1,5-cz-[Ln(Lig)], Eu^III ([1]; after 1 hour at 80° C.): 6%
conversion to 1,5-cz-[Ln(Lig)], Gd^III ([1]; after 1 week at 80° C.): 91%
conversion to 1,5-cz-[Ln(Lig)], Gd^III ([1]; after 1 hour at 80° C.): 7%
conversion to 1,5-cz-[Ln(Lig)], Ho^III ([1]; after 1 week at 80° C.): 96%
conversion to 1,5-cz-[Ln(Lig)], Ho^III ([1]; after 1 hour at 80° C.): 31%
conversion to 1,5-cz-[Ln(Lig)], La^III ([1]; after 1 week at 80° C.): 73%
conversion to 1,5-cz-[Ln(Lig)], La^III ([1]; after 1 hour at 80° C.): 0%
conversion to 1,5-cz-[Ln(Lig)], Lu^III ([1]; after 1 week at 80° C.): 96%
conversion to 1,5-cz-[Ln(Lig)], Lu^III ([1]; after 1 hour at 80° C.): 85%
conversion to 1,5-cz-[Ln(Lig)], Nd^III ([1]; after 1 week at 80° C.): 85%
conversion to 1,5-cz-[Ln(Lig)], Nd^III ([1]; after 1 hour at 80° C.): 2%
conversion to 1,5-cz-[Ln(Lig)], Pr^III ([1]; after 1 week at 80° C.): 82%
conversion to 1,5-cz-[Ln(Lig)], Pr^III ([1]; after 1 hour at 80° C.): 1%
conversion to 1,5-cz-[Ln(Lig)], Sm^III ([1]; after 1 week at 80° C.): 92%
conversion to 1,5-cz-[Ln(Lig)], Sm^III ([1]; after 1 hour at 80° C.): 5%
conversion to 1,5-cz-[Ln(Lig)], Tb^III ([1]; after 1 week at 80° C.): 94%
conversion to 1,5-cz-[Ln(Lig)], Tb^III ([1]; after 1 hour at 80° C.): 14%
conversion to 1,5-cz-[Ln(Lig)], Tm^III ([1]; after 1 week at 80° C.): 96%
conversion to 1,5-cz-[Ln(Lig)], Tm^III ([1]; after 1 hour at 80° C.): 63%
conversion to 1,5-cz-[Ln(Lig)], Yb^III ([1]; after 1 week at 80° C.): 97%
conversion to 1,5-cz-[Ln(Lig)], Yb^III ([1]; after 1 hour at 80° C.): 75%
conversion to 1,5-cz-[M(Lig)], Sc^III ([2]; 1 week at 80° C.): 31%
conversion to 1,5-cz-[M(Lig)], Y^III ([2]; 1 week at 80° C.): 95%
conversion to 1,5-cz-[M(Lig)], Sc^III ([2]; 1 hour at 80° C.): 6%
conversion to 1,5-cz-[M(Lig)], Y^III ([2]; 1 hour at 80° C.): 30%
Compound: C#Cc1cccc(CN2CCN(CC(=O)O)CCN(Cc3cc(N(C)C)cc(CN=[N+]=[N-])n3)CCN(CC(=O)O)CC2)n1 [TD1176]
